# Values quoted from earlier work as cited in patent US9795630B2, “Compositions and methods for inducing or enhancing connective tissue repair” (Glenpharma AB, priority 2009, dated 2017).
# System: superficial digital flexor tendon injuries
# Details: horses; Dyson 1977/1997 & 2004
smiles,measurement,value
"N#CCCN.N#CCCN.O=C(O)/C=C/C(=O)O [BAPN, B-aminoproprionitrile fumarate]","benefit of intralesional treatment (healing, recovery time, tendon repair) compared with controlled exercise alone",failed to show any benefit
